Results on 18 compounds are retold here after patent US6821980B1, “Substituted 5-benzyl-2,4-diaminopyrimidines” (Basilea Pharmaceutica AG, priority 1999, dated 2004).

Assay [1] has as its system Staphylococcus aureus 101. The assay is described as follows: MIC against Staphylococcus aureus 101. To be noted: Staphylococcus aureus 101, MRSA- and trimethoprim-resistant, clinical isolate; for MIC: Table 2, read-out: MIC Sa101. Type of assay: cell-based.
The target in assay [2] is purified DHFR of strain 157/4696 of Staphylococcus aureus (Staphylococcus aureus, UniProt P13955). The assay is described as follows: biochemical.
For assay [3], the system named is Streptococcus pneumoniae 1/1. The assay is described as follows: MIC against Streptococcus pneumoniae 1/1. The class given is cell-based.
For assay [4], the target named is T1, purified DHFR of strain Sp1/1 of Streptococcus pneumoniae (Streptococcus pneumoniae serotype 4, UniProt Q54801).
T1 sequence (Q54801 1-168 I100L): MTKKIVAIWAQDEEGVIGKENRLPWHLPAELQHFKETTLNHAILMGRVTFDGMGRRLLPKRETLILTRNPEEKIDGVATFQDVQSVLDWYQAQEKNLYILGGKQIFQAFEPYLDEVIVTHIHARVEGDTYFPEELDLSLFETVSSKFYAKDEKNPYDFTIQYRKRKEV
Type of assay: biochemical. To be noted: IC50 against purified DHFR of strain Sp1/1.

The mark [5] stands for this setting: Table 2, Streptococcus pneumoniae 1/1, trimethoprim- and penicillin-resistant, serotype 6, clinical isolate, read-out: MIC Sp1/1.
Setting [6] is: Streptococcus pneumoniae, 1/1, read-out: MIC Sp1/1.

In brackets after ≈: the same amount, converted by molar mass. Read-outs that look alike come from different tables or passages of the source.

Sequence of purified DHFR of strain 157/4696 of Staphylococcus aureus (P13955 whole entry): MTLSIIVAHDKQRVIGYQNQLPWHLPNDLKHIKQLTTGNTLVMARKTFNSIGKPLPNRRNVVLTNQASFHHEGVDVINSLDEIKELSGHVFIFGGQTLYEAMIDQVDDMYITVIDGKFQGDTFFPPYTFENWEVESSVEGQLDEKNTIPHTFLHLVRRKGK

As for `CCOc1cc(Cc2cnc(N)nc2N)cc(OC2CCC2)c1-c1cccc(N)c1` [Example 07-e, 5-(3′-Amino-6-qdobutoxy-2-ethoxy-biphenyl-4-ylmethyl)-pyrimidine-2,4-diamine], the values for the MIC in assay [1] and in assay [3] (setting [5]) were 4 µg/mL (≈ 9.86 µM) and 1 µg/mL (≈ 2.47 µM), respectively. In addition, the IC50 in assay [2] was 640 nM; in assay [4] (Table 2), 28 nM.
With `CCOc1cc(Cc2cnc(N)nc2N)cc(OCC(C)(C)C=CC#N)c1-c1cccc(N)c1` [Example 07-f, (E)-5-[3′-Amino-4-(2,4-diamino-pyrimidin-5-ylmeth)-6-ethoxy-biphenyl-2-yloxy]-4,4-dimethyl-pent-2-ene-nitrile], the results for the MIC in assay [1] and in assay [3] (setting [6]) were 8 µg/mL (≈ 17.4 µM) and 2 µg/mL (≈ 4.36 µM), respectively. Besides, the IC50 came out at 750 nM in assay [2] and 55 nM in assay [4] (Table 2).
With `CCOc1cc(Cc2cnc(N)nc2N)cc(OCCc2ccccn2)c1-c1cccc(N)c1` [Example 07-g, 5-[3′-Amino-6-ethoxy-2-(2-pyridin-2-yl-ethoxy)-biphenyl-4-ylmethyl]-pyrimidine-2,4-diamine], the MIC in assay [1] and in assay [3] (setting [5]) was 8 µg/mL (≈ 17.5 µM) in each case. In addition, the IC50 in assay [2] was determined as 650 nM; in assay [4] (Table 2) it was 30 nM.
As to `CCOc1cc(Cc2cnc(N)nc2N)cc(OCC(F)(F)F)c1-c1cccc(N)c1` [Example 07-i, 5-[3′-Amino-6-ethoxy-2-(2,2,2-trifluoro-ethoxy)-biphenyl-4-ylmethyl]-pyrimidine-2,4-diamine], the MIC in assay [1] and in assay [3] (setting [5]) was 4 µg/mL (≈ 9.23 µM) each time. Besides, the figures for the IC50 in assay [2] and in assay [4] (Table 2) were 900 nM and 28 nM, respectively.
Regarding `CCOc1cc(Cc2cnc(N)nc2N)cc(OCCC2CCOCC2)c1-c1cccc(N)c1` [Example 07-j, 5-{3′-Amino-2-ethoxy-6-[2-(tetrahydro-pyran-4-yl)-ethoxy]-biphenyl-4-ylmethyl}-pyrimidine-2,4-diamine], the MIC turned out to be 8 µg/mL (≈ 17.3 µM) in assay [1] and 1 µg/mL (≈ 2.16 µM) in assay [3] (setting [5]). The IC50 came to 1300 nM in assay [2] and 29 nM in assay [4] (Table 2).
`CCOc1cc(Cc2cnc(N)nc2N)cc(OCC2CC2)c1-c1cccc(N)c1` [Example 7a, 5-(3′-Amino-6-cyclopropylmethoxy-2-ethoxy-biphenyl-4-ylmethyl)-pirimidine-2,4-diamine]: the “MIC Sa101” value in assay [1] (Table 1) amounted to 8 µg/mL (≈ 19.7 µM). Besides, the IC50 was 510 nM in assay [2] (Table 1, IC50 against purified DHFR of strain 157/4696 (highly trimethoprim-resistant; clinical isolate), read-out: DHFR Sa1) and 2.1 nM in assay [4] (Table 1). In addition, in assay [3] (Table 1, Streptococcus pneumoniae 1/1, trimethoprim- and penicillin-resistant, serotype 6, clinical isolate), the “MIC Sp1/1” value was 1 µg/mL (≈ 2.47 µM).
For the compound `CCOc1cc(Cc2cnc(N)nc2N)cc(OCC(C)(C)COC)c1-c1ccc(O)cc1` [Example 08-a, 4′-(2,4-Diamino-pylimidin-5-ylmethyl)-6′-ethoxy-2′-(3-methoxy-2,2-dimethyl-propoxy)-biphenyl-4-ol], the MIC stood at 8 µg/mL (≈ 17.7 µM) in assay [1] and 2 µg/mL (≈ 4.42 µM) in assay [3] (setting [5]). Moreover, the IC50 in assay [2] is 1700 nM; in assay [4] (Table 2) it was 18 nM.
`CCOc1cc(Cc2cnc(N)nc2N)cc(OCC(C)(C)/C=C/C#N)c1-c1ccc(O)cc1` [Example 08-b, (E)-5-[4-(2,4-Diamino-pyrimidin-5-ylmethyl)-6-ethoxy-4′-hydroxy-biphenyl-2-yloxy]-4,4-dimethyl-pent-2-ene-nitrile]: the figures for the MIC in assay [1] and in assay [3] (setting [6]) were 8 µg/mL (≈ 17.4 µM) and 2 µg/mL (≈ 4.35 µM), respectively. Moreover, the IC50 in assay [2] turned out to be 950 nM; in assay [4] (Table 2) it was 38 nM.
In the case of `CCOc1cc(Cc2cnc(N)nc2N)cc(OCC2(CC#N)CC2)c1-c1ccc(O)cc1` [Example 08-c, {1-[4-(2,4-Diamino-pyrimidin-5-ylmethyl)-6-ethoxy-4′-hydroxy-biphenyl-2-yloxymethyl]-cyclopropyl}-acetonitrile], the MIC in assay [1] turned out to be 8 µg/mL (≈ 18 µM); in assay [3] (setting [5]) it was 4 µg/mL (≈ 8.98 µM). For the same compound, the IC50 is 1600 nM in assay [2] and 24 nM in assay [4] (Table 2).
`CCOc1cc(Cc2cnc(N)nc2N)cc(OCC2(/C=C/C#N)CC2)c1-c1ccc(O)cc1` [Example 08-d, (E)-3-[1-[4-(2,4-Diamino-pyrimidin-5-ylmethyl)-6-ethoxy-4′-hydrozy-biphenyl-2-yloxymethyl]-cyopropyl]-acrylonitrile]: the MIC came to 8 µg/mL (≈ 17.5 µM) in assay [1] and 4 µg/mL (≈ 8.74 µM) in assay [3] (setting [5]). Also, the IC50 in assay [2] came to 620 nM; in assay [4] (Table 2) it was 16 nM.
Consider `CCOc1cc(Cc2cnc(N)nc2N)cc(OCCC2CCOCC2)c1-c1ccc(O)cc1` [Example 08-e, 4′-(2,4-Diamino-pyrimidin-5-ylmethyl)-6′-ethoxy-2′-[2-(tetrahydrogyran-4-yl)-ethoxy]-biphenyl-4-ol], for which the MIC is 8 µg/mL (≈ 17.2 µM) in assay [1] and 1 µg/mL (≈ 2.15 µM) in assay [3] (setting [5]). The IC50 is 950 nM in assay [2] and 5.6 nM in assay [4] (Table 2).
Consider `CCOc1cc(Cc2cnc(N)nc2N)cc(OCC2(C#N)CC2)c1-c1ccc(O)cc1` [Example 08-f, 1-[4-(2,4-Diamino-pyrimidin-5-ylmethyl)-6-ethoxy-4′-hydroxy-biphenyl-2-yloxymethyl]-cyclopropanecarbonitrile], for which the MIC in assay [1] amounted to 8 µg/mL (≈ 18.5 µM); in assay [3] (setting [5]), 4 µg/mL (≈ 9.27 µM). Also, the IC50 in assay [2] was found to be 950 nM; in assay [4] (Table 2) it was 49 nM.
Take `CCOc1cc(Cc2cnc(N)nc2N)cc(OCCc2ccccn2)c1-c1ccc(O)cc1` [Example 08-g, 4′-(2,4-Diamino-pyrimidin-5-ylmethyl)-6′-ethoxy-2′-(2-pyridin-2-yl-ethoxy)-biphenyl-4-ol]: the values for the MIC in assay [1] and in assay [3] (setting [5]) were 8 µg/mL (≈ 17.5 µM) and 4 µg/mL (≈ 8.74 µM), respectively. The values for the IC50 in assay [2] and in assay [4] (Table 2) were 1300 nM and 52 nM, respectively.
Turning to `CCOc1cc(Cc2cnc(N)nc2N)cc(OCC2CC2)c1-c1ccc(O)cc1` [Example 08-h, 2′-Cyclopropylmethoxy-4′-(2,4-diamino-pyrimidin-5-ylmethyl)-6′-ethoxy-biphenyl-4-ol], the figures for the MIC in assay [1] and in assay [3] (setting [5]) were 4 µg/mL (≈ 9.84 µM) and 2 µg/mL (≈ 4.92 µM), respectively. Also, the IC50 in assay [2] came out at 1200 nM; in assay [4] (Table 2) it was 11 nM.
As to `CCOc1cc(Cc2cnc(N)nc2N)cc(OCC2CCC2)c1-c1ccc(O)cc1` [Example 08-i, 2′-Cyclobutylmethoxy-4′-(2,4-diamino-pyrimidin-5-ylmethyl)-6′-ethoxy-biphenyl-4-ol], the MIC was found to be 2 µg/mL (≈ 4.76 µM) in assay [1] and 4 µg/mL (≈ 9.51 µM) in assay [3] (setting [5]). Moreover, the IC50 in assay [2] came out at 1000 nM; in assay [4] (Table 2) it was 40 nM.
Turning to `CCOc1cc(Cc2cnc(N)nc2N)cc(OC2CCCC2)c1-c1ccc(O)cc1` [Example 08-j, 2′-Cyclopentylox-4′-(2,4-diamino-pyrimidin-5-ylmethyl)-6′-ethoxy-biphenyl-4-ol], the MIC in assay [1] and in assay [3] (setting [5]) was 2 µg/mL (≈ 4.76 µM) each time. Moreover, the values for the IC50 in assay [2] and in assay [4] (Table 2) were 1600 nM and 26 nM, respectively.
On to `CCOc1cc(Cc2cnc(N)nc2N)cc(OC2CCC2)c1-c1ccc(O)cc1` [Example 08-k, 2′-Cyclobutoxy-4′-(2,4-diamino-pyrimidin-5-ylmethyl)-6′-ethoxy-biphenyl-4-ol], for which the MIC in assay [1] amounted to 4 µg/mL (≈ 9.84 µM); in assay [3] (setting [5]) it was 2 µg/mL (≈ 4.92 µM). Moreover, the values for the IC50 in assay [2] and in assay [4] (Table 2) were 2100 nM and 43 nM, respectively.
In the case of `CCOc1cc(Cc2cnc(N)nc2N)cc(OCCC2CC2)c1-c1ccc(O)cc1` [Example 08-l, 2′-(2-Cydopropyl-ethoxy)-4′-(2,4-diamino-pyrimidin-5-ylmethyl)-6′-ethoxy-biphenyl-4-ol], the figures for the MIC in assay [1] and in assay [3] (setting [5]) were 4 µg/mL (≈ 9.51 µM) and 8 µg/mL (≈ 19 µM), respectively. The IC50 in assay [2] stood at 2200 nM; in assay [4] (Table 2), 58 nM.
